Measured values as given in patent US10556865B2, “Synergistic herbicidal composition containing certain pyridine or pyrimidine carboxylic acids and certain cereal and rice herbicides” (Dow AgroSciences, LLC, priority 2007, dated 2020).
Where two headings read alike, the source gives them in different places.

Experiments:
Experiment in all cases: Postemergence herbicidal activity of mixtures in cereal crops (greenhouse, visual injury)
Assay type in all cases: in vivo
[1] = test system: annual ryegrass (Lolium multiflorum L; LOLMG)
Procedure, shortened: (§1)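 Plants at second-third true leaf stage sprayed postemergence at 187 L/ha with compound and second cereal herbicide alone and combined; solvent blank controls. Visual injury scored 0-100% versus controls after 20-22 days; expected mixture effects by Colby's equation.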

[2] = test system: littleseed Canarygrass (Phalaris minor L; PHAMI)
Procedure, shortened: as §1

[3] = test system: wild oats (Avena fatua L; AVEFA)
Procedure, shortened: as §1

[4] = test system: windgrass (Apera spica-venti L; APESV); conditions: for pest or weed control at 17.5 g/ha / pest or weed control at 35 g/ha / pest or weed control at 70 g/ha / pest or weed control at 8.75 g/ha: Apera spica-venti, post-emergence, read-out: APESV Ob
Procedure, shortened: as §1

[5] = test system: chickweed (Stellaria media L; STEME); conditions: Stellaria media, post-emergence, read-out: STEME Ob
Procedure, shortened: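 Compounds A and B, as methyl ester or TEA/K salts, are tested alone and mixed with a second cereal herbicide on greenhouse plants at the second–third true leaf stage. Spray volume is 187 L/ha. Percent visual injury at 20–22 days is compared with Colby-expected mixture response.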

Question: With `COC(=O)c1nc(-c2ccc(Cl)c(OC)c2F)cc(N)c1Cl` [Compound A Methyl, 4-amino-3-chloro-6-(4-chloro-2-fluoro-3-methoxyphenyl)pyridine-2-carboxylic acid methyl ester] as the compound, how does the “LOLMG Ob” value ([1]; 17.5 g/ha, Table 1) read?
Answer: 20%

Question: What about the “LOLMG Ob” value ([1]; 17.5 g/ha, Table 2) of the same compound?
Answer: 20%

Question: What about the “LOLMG Ob” value ([1]; 35 g/ha, Table 1) of the same compound?
Answer: 40%

Question: What about the “LOLMG Ob” value ([1]; 35 g/ha, Table 2) of the same compound?
Answer: 40%

Question: And the “LOLMG Ob” value ([1]; 70 g/ha, Table 1)?
Answer: 0%

Question: What about the “LOLMG Ob” value ([1]; 70 g/ha, Table 2) of the same compound?
Answer: 60%

Question: And the “PHAMI Ob” value ([2]; 17.5 g/ha, Table 4)?
Answer: 20%

Question: What about the “PHAMI Ob” value ([2]; 17.5 g/ha, Table 5) of the same compound?
Answer: 20%

Question: What about the “PHAMI Ob” value ([2]; 17.5 g/ha, Table 6) of the same compound?
Answer: 20%

Question: And the “PHAMI Ob” value ([2]; 35 g/ha, Table 3)?
Answer: 30%

Question: And the “PHAMI Ob” value ([2]; 35 g/ha, Table 4)?
Answer: 30%

Question: And the “PHAMI Ob” value ([2]; 35 g/ha, Table 5)?
Answer: 30%

Question: What about the “PHAMI Ob” value ([2]; 35 g/ha, Table 6) of the same compound?
Answer: 30%

Question: What about the “PHAMI Ob” value ([2]; 35 g/ha, Table 11) of the same compound?
Answer: 3%

Question: What about the “PHAMI Ob” value ([2]; 70 g/ha, Table 3) of the same compound?
Answer: 35%

Question: And the “PHAMI Ob” value ([2]; 70 g/ha, Table 4)?
Answer: 35%

Question: What about the “PHAMI Ob” value ([2]; 70 g/ha, Table 5) of the same compound?
Answer: 35%

Question: What about the “PHAMI Ob” value ([2]; 70 g/ha, Table 6) of the same compound?
Answer: 35%

Question: What about the “PHAMI Ob” value ([2]; 70 g/ha, Table 11) of the same compound?
Answer: 6%

Question: What about the “PHAMI Ob” value ([2]; 140 g/ha, Table 11) of the same compound?
Answer: 17%

Question: And the “AVEFA Ob” value ([3]; 17.5 g/ha, Table 1)?
Answer: 30%

Question: And the “AVEFA Ob” value ([3]; 17.5 g/ha, Table 4)?
Answer: 0%

Question: What about the “AVEFA Ob” value ([3]; 17.5 g/ha, Table 5) of the same compound?
Answer: 0%

Question: And the “AVEFA Ob” value ([3]; 35 g/ha, Table 1)?
Answer: 30%

Question: What about the “AVEFA Ob” value ([3]; 35 g/ha, Table 3) of the same compound?
Answer: 40%

Question: What about the “AVEFA Ob” value ([3]; 35 g/ha, Table 4) of the same compound?
Answer: 40%

Question: And the “AVEFA Ob” value ([3]; 35 g/ha, Table 5)?
Answer: 40%

Question: And the “AVEFA Ob” value ([3]; 70 g/ha, Table 1)?
Answer: 35%

Question: What about the “AVEFA Ob” value ([3]; 70 g/ha, Table 3) of the same compound?
Answer: 45%

Question: And the “AVEFA Ob” value ([3]; 70 g/ha, Table 4)?
Answer: 45%

Question: What about the “AVEFA Ob” value ([3]; 70 g/ha, Table 5) of the same compound?
Answer: 45%

Question: What about the pest or weed control at 17.5 g/ha ([4]; 17.5 g/ha, Table 1) of the same compound?
Answer: 20%

Question: What about the pest or weed control at 17.5 g/ha ([4]; 17.5 g/ha, Table 4) of the same compound?
Answer: 0%

Question: What about the pest or weed control at 17.5 g/ha ([4]; 17.5 g/ha, Table 5) of the same compound?
Answer: 0%

Question: What about the pest or weed control at 35 g/ha ([4]; 35 g/ha, Table 1) of the same compound?
Answer: 20%

Question: And the pest or weed control at 35 g/ha ([4]; 35 g/ha, Table 3)?
Answer: 10%

Question: What about the pest or weed control at 35 g/ha ([4]; 35 g/ha, Table 4) of the same compound?
Answer: 10%

Question: And the pest or weed control at 35 g/ha ([4]; 35 g/ha, Table 5)?
Answer: 10%

Question: And the pest or weed control at 70 g/ha ([4]; 70 g/ha, Table 1)?
Answer: 30%

Question: And the pest or weed control at 70 g/ha ([4]; 70 g/ha, Table 3)?
Answer: 10%

Question: What about the pest or weed control at 70 g/ha ([4]; 70 g/ha, Table 4) of the same compound?
Answer: 10%

Question: What about the pest or weed control at 70 g/ha ([4]; 70 g/ha, Table 5) of the same compound?
Answer: 10%

Question: And the pest or weed control at 17.5 g/ha ([5]; 17.5 g/ha)?
Answer: 78%

Question: What about the pest or weed control at 35 g/ha ([5]; 35 g/ha) of the same compound?
Answer: 90%

Question: What about the pest or weed control at 70 g/ha ([5]; 70 g/ha) of the same compound?
Answer: 100%

Question: `COC(=O)c1nc(-c2ccc(Cl)c(OC)c2F)nc(N)c1Cl` [Compound B Methyl, 6-amino-5-chloro-2-(4-chloro-2-fluoro-3-methoxyphenyl)pyrimidine-4-carboxylic acid methyl ester] was tested. Which “LOLMG Ob” value ([1]; 8.75 g/ha) did it give?
Answer: 0%

Question: And the “LOLMG Ob” value ([1]; 8.75 g/ha, Table 22)?
Answer: 0%

Question: What about the “LOLMG Ob” value ([1]; 17.5 g/ha) of the same compound?
Answer: 0%

Question: And the “LOLMG Ob” value ([1]; 17.5 g/ha, Table 22)?
Answer: 0%

Question: And the “LOLMG Ob” value ([1]; 35 g/ha)?
Answer: 0%

Question: What about the “LOLMG Ob” value ([1]; 35 g/ha, Table 22) of the same compound?
Answer: 0%

Question: And the “LOLMG Ob” value ([1]; 70 g/ha)?
Answer: 0%

Question: What about the “LOLMG Ob” value ([1]; 70 g/ha, Table 22) of the same compound?
Answer: 0%

Question: And the “PHAMI Ob” value ([2]; 8.75 g/ha)?
Answer: 0%

Question: And the “PHAMI Ob” value ([2]; 8.75 g/ha, Table 20)?
Answer: 0%

Question: What about the “PHAMI Ob” value ([2]; 8.75 g/ha, Table 22) of the same compound?
Answer: 0%

Question: What about the “PHAMI Ob” value ([2]; 17.5 g/ha) of the same compound?
Answer: 0%

Question: And the “PHAMI Ob” value ([2]; 17.5 g/ha, Table 20)?
Answer: 0%

Question: What about the “PHAMI Ob” value ([2]; 17.5 g/ha, Table 22) of the same compound?
Answer: 0%

Question: And the “PHAMI Ob” value ([2]; 35 g/ha)?
Answer: 0%

Question: And the “PHAMI Ob” value ([2]; 35 g/ha, Table 20)?
Answer: 0%

Question: And the “PHAMI Ob” value ([2]; 35 g/ha, Table 22)?
Answer: 0%

Question: What about the “PHAMI Ob” value ([2]; 70 g/ha) of the same compound?
Answer: 0%

Question: What about the “PHAMI Ob” value ([2]; 70 g/ha, Table 20) of the same compound?
Answer: 0%

Question: And the “PHAMI Ob” value ([2]; 70 g/ha, Table 22)?
Answer: 0%

Question: What about the “AVEFA Ob” value ([3]; 8.75 g/ha) of the same compound?
Answer: 0%

Question: What about the “AVEFA Ob” value ([3]; 8.75 g/ha, Table 20) of the same compound?
Answer: 0%

Question: And the “AVEFA Ob” value ([3]; 17.5 g/ha)?
Answer: 0%

Question: And the “AVEFA Ob” value ([3]; 17.5 g/ha, Table 20)?
Answer: 0%

Question: And the “AVEFA Ob” value ([3]; 35 g/ha)?
Answer: 0%

Question: And the “AVEFA Ob” value ([3]; 35 g/ha, Table 20)?
Answer: 0%

Question: What about the “AVEFA Ob” value ([3]; 70 g/ha) of the same compound?
Answer: 0%

Question: What about the “AVEFA Ob” value ([3]; 70 g/ha, Table 20) of the same compound?
Answer: 0%

Question: And the “APESV Ob” value ([4]; 8.75 g/ha)?
Answer: 0%

Question: And the “APESV Ob” value ([4]; 17.5 g/ha)?
Answer: 0%

Question: What about the “APESV Ob” value ([4]; 35 g/ha) of the same compound?
Answer: 0%

Question: What about the “APESV Ob” value ([4]; 70 g/ha) of the same compound?
Answer: 0%

Question: What about the pest or weed control at 8.75 g/ha ([4]; 8.75 g/ha, Table 20) of the same compound?
Answer: 0%

Question: And the pest or weed control at 8.75 g/ha ([4]; 8.75 g/ha, Table 22)?
Answer: 0%

Question: And the pest or weed control at 17.5 g/ha ([4]; 17.5 g/ha, Table 20)?
Answer: 0%

Question: And the pest or weed control at 17.5 g/ha ([4]; 17.5 g/ha, Table 22)?
Answer: 0%

Question: What about the pest or weed control at 35 g/ha ([4]; 35 g/ha, Table 20) of the same compound?
Answer: 0%

Question: And the pest or weed control at 35 g/ha ([4]; 35 g/ha, Table 22)?
Answer: 0%

Question: And the pest or weed control at 70 g/ha ([4]; 70 g/ha, Table 20)?
Answer: 0%

Question: And the pest or weed control at 70 g/ha ([4]; 70 g/ha, Table 22)?
Answer: 0%

Question: For `O=C(O)c1c(Cl)ccc2cc(Cl)cnc12` [Quinclorac], which pest or weed control at 140 g/ha ([5]; 140 g/ha alone) is on record?
Answer: 0%
